Where “and” joins values, the source holds several entries; their conditions need not be identical. Equal values may be shown once.
Molecular target: T1, mTRPC5 (Mus musculus, UniProt Q9QX29)
T1 construct: expressed in transfected cells
T1 sequence (Q9QX29 1-975): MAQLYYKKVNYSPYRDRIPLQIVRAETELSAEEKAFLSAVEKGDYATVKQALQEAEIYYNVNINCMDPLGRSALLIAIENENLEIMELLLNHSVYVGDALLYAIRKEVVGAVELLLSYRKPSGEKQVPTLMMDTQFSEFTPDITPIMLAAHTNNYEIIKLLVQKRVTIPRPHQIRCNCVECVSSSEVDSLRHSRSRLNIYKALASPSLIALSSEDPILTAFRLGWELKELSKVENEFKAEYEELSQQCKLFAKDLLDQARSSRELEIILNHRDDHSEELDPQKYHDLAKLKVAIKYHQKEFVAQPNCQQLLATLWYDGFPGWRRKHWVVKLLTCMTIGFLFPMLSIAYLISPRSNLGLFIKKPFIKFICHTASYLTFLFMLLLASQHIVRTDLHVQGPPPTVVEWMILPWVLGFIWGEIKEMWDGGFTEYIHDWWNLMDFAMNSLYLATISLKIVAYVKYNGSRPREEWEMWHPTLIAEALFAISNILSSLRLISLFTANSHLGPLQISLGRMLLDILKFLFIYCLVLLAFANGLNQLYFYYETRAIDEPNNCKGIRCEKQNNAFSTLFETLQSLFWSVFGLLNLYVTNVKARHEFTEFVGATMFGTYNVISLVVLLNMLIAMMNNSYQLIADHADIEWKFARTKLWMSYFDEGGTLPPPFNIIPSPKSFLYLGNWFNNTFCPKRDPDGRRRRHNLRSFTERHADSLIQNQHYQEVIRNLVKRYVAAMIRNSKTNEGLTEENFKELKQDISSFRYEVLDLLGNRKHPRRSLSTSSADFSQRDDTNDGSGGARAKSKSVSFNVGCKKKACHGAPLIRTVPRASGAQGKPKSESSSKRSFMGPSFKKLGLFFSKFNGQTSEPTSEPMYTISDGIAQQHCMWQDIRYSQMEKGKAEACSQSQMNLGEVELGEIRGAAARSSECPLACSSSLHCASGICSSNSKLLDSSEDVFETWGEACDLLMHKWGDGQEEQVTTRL
Assay: Whole-cell patch clamp, AlF4- evoked TRPC5 currents
Format: cell-based
Description: Cells were grown at 37°C in a humidified atmosphere (5% or 7% CO2) under standard cell culture conditions. Stable human embryonic kidney (HEK) cell lines expressing recombinant mTRPC4ß (GenBank accession number AAC05178); mTRPC5 (GenBank accession number NM_009428) or hTRPC6 (GenBank accession number AF080394) under the control of a tetracycline-inducible promoter were generated using the Flp-In T-Rex (FITR) system (Invitrogen, Karlsruhe, Germany). […]
Cells grown on poly-L-lysine-coated coverslips were continuously superfused with extracellular solution and substances were applied using an ALA BPS-8 perfusion system (ALA Scientific Instruments, Westbury, USA). […] Cells were held at −70 mV, and current-voltage (I–V) relationships were routinely measured every 2 or 3 s by applying voltage ramps (180 ms) from −100 mV to +80 mV. […]
For statistical analysis, analysis of variance was performed with Origin 6.0 software (Microcal Software Inc., Northampton, USA). […] IC50 were calculated with SigmaPlot (Systat software, San Jose, USA) using the sigmoidal Hill-model: f = 100 (C^n/(IC50 ^n+C^n)); where f is the inhibition, C is the applied drug concentration and n is the Hill coefficient. […] Averaged data is expressed as means ± SEM.

Hill slope, TRPC5 current inhibition (fit to dose-response equation): 1.43 | IC50 (whole-cell patch clamp, AlF4- infusion, TRPC5 HEK-FITR cells, read-out: IC50, TRPC5 current inhibition): > 10 µM and 13.6 µM and ~14 µM
SMILES: C#C[C@]1(OC(C)=O)CC[C@H]2[C@@H]3CCC4=CC(=NO)CC[C@@H]4[C@H]3CC[C@@]21CC (mixture of isomers) [norgestimate]

Source: paper PMC3328449, “Inhibition of Diacylglycerol–Sensitive TRPC Channels by Synthetic and Natural Steroids” (PLoS ONE, 2012)
